Assay [1] has as its system Escherichia coli. Kind of assay: Antibacterial activity against Escherichia coli AG102MB. In kind it is functional.
Assay [2] deals with Escherichia coli. Kind of assay: Antibacterial activity against Escherichia coli AG102MB harboring pS1328-based acrB gene. In kind it is functional.
Assay [3] deals with Escherichia coli. The assay is described as follows: Antibacterial activity against Escherichia coli AG102MB harboring naive acrB gene. In kind it is functional.
Assay [4] deals with Escherichia coli. Kind of assay: Antibacterial activity against Escherichia coli AG102MB harboring pP10-based acrB gene. It is filed as functional.
Assay [5] has as its system Escherichia coli. Kind of assay: Antibacterial activity against Escherichia coli AG102MB harboring pSportI cloning vector.

Values after ≈ are worked out from the molar mass of the structure shown. Where only a bound is given, the exact number is not on record here.

In the case of `CC[n+]1c(-c2ccccc2)c2cc(N)ccc2c2ccc(N)cc21.[Br-]` [HOMIDIUM BROMIDE], the MIC in assay [1] amounted to 4 µg/mL; in assay [2] it was 64 µg/mL; in assay [3], 128 µg/mL; in assay [4] it was 64 µg/mL; in assay [5], 2 µg/mL.
In turn, `NC[C@H]1O[C@H](O[C@H]2[C@H](O)[C@@H](O[C@H]3O[C@H](CO)[C@@H](O)[C@H](N)[C@H]3O)[C@H](N)C[C@@H]2N)[C@H](O)[C@@H](O)[C@@H]1O` [KANAMYCIN] returned a minimum inhibitory concentration (MIC) in assay [1] greater than 1020 µg/mL.
`CC[C@H]1OC(=O)C[C@@H](O)[C@H](C)[C@@H](O[C@@H]2O[C@H](C)[C@@H](O[C@H]3C[C@@](C)(O)[C@@H](O)[C@H](C)O3)[C@H](N(C)C)[C@H]2O)[C@@H](CC=O)C[C@@H](C)C(=O)/C=C/C(C)=C/[C@@H]1CO[C@@H]1O[C@H](C)[C@@H](O)[C@@H](OC)[C@H]1OC` [TYLOSIN]: the MIC is 128 µg/mL (≈ 140 µM) in assay [1]; greater than 1020 µg/mL in assay [2]; 1020 µg/mL (≈ 1120 µM) in assay [3]; 1020 µg/mL (≈ 1120 µM) in assay [4]; 16 µg/mL (≈ 17.5 µM) in assay [5].
Turning to `CC(=O)O[C@H]1C[C@@]2(C)[C@@H](C[C@@H](O)[C@H]3[C@@]4(C)CC[C@@H](O)[C@@H](C)[C@@H]4CC[C@@]32C)/C1=C(\CCC=C(C)C)C(=O)O` [FUSIDIC ACID], the MIC in assay [1] was 16 µg/mL (≈ 31 µM); in assay [2], greater than 512 µg/mL; in assay [3], greater than 512 µg/mL; in assay [4], greater than 512 µg/mL; in assay [5] it was 8 µg/mL (≈ 15.5 µM).
With `C[C@H](CCC(=O)O)[C@H]1CC[C@H]2[C@@H]3[C@H](O)C[C@@H]4C[C@H](O)CC[C@]4(C)[C@H]3C[C@H](O)[C@]12C` [CHOLIC ACID], the MIC worked out at 4 µg/mL (≈ 9.79 µM) in assay [1]; 16 µg/mL (≈ 39.2 µM) in assay [2]; 8 µg/mL (≈ 19.6 µM) in assay [3]; 8 µg/mL (≈ 19.6 µM) in assay [4]; 4 µg/mL (≈ 9.79 µM) in assay [5].
As to `CN(C)[C@@H]1C(O)=C(C(N)=O)C(=O)[C@@]2(O)C(O)=C3C(=O)c4c(O)cccc4[C@@](C)(O)[C@H]3C[C@@H]12` [TETRACYCLINE], the MIC in assay [1] is 1 µg/mL (≈ 2.25 µM); in assay [2], 16 µg/mL (≈ 36 µM); in assay [3], 8 µg/mL (≈ 18 µM); in assay [4], 8 µg/mL (≈ 18 µM); in assay [5] it was 1 µg/mL (≈ 2.25 µM).
Consider `CC[C@H]1OC(=O)[C@H](C)[C@@H](O[C@H]2C[C@@](C)(OC)[C@@H](O)[C@H](C)O2)[C@H](C)[C@@H](O[C@@H]2O[C@H](C)C[C@H](N(C)C)[C@H]2O)[C@](C)(O)C[C@@H](C)C(=O)[C@H](C)[C@@H](O)[C@]1(C)O` [ERYTHROMYCIN], for which the MIC in assay [1] is 4 µg/mL (≈ 5.45 µM); in assay [2], 512 µg/mL (≈ 698 µM); in assay [3], 128 µg/mL (≈ 174 µM); in assay [4], 128 µg/mL (≈ 174 µM); in assay [5], 8 µg/mL (≈ 10.9 µM).
In assay [1], `O=C(O)c1cn(C2CC2)c2cc(N3CCNCC3)c(F)cc2c1=O` [CIPROFLOXACIN] displayed an MIC of 0.063 µg/mL (≈ 0.19 µM).
Consider `O=C(N[C@H](CO)[C@H](O)c1ccc([N+](=O)[O-])cc1)C(Cl)Cl` [CHLORAMPHENICOL], for which the MIC in assay [1] was determined as 2 µg/mL (≈ 6.19 µM); in assay [4], 32 µg/mL (≈ 99 µM); in assay [5], 4 µg/mL (≈ 12.4 µM).
In the case of `CO[C@H]1C[C@H](O[C@H]2[C@H](C)[C@@H](O[C@@H]3O[C@H](C)C[C@H](N(C)C)[C@H]3O)[C@@H](C)C[C@@]3(CO3)C(=O)[C@H](C)[C@@H](O)[C@@H](C)[C@@H](C)OC(=O)[C@@H]2C)O[C@@H](C)[C@@H]1O` [OLEANDOMYCIN], the MIC is 256 µg/mL (≈ 372 µM) in assay [1]; greater than 1020 µg/mL in assay [2]; greater than 1020 µg/mL in assay [3]; greater than 1020 µg/mL in assay [4]; 64 µg/mL (≈ 93 µM) in assay [5].
On to `CO[C@@H]1[C@@H](OC(N)=O)[C@@H](O)[C@H](Oc2ccc3c(O)c(NC(=O)c4ccc(O)c(CC=C(C)C)c4)c(=O)oc3c2C)OC1(C)C` [NOVOBIOCIN], for which the MIC in assay [1] came to 4 µg/mL (≈ 6.53 µM); in assay [2], 512 µg/mL (≈ 836 µM); in assay [3], 512 µg/mL (≈ 836 µM); in assay [4], 512 µg/mL (≈ 836 µM); in assay [5] it was 8 µg/mL (≈ 13.1 µM).
For `CN(C)c1ccc(C(=C2C=CC(=[N+](C)C)C=C2)c2ccc(N(C)C)cc2)cc1.[Cl-]` [GENTIAN VIOLET], the MIC in assay [1] was 0.5 µg/mL; in assay [2], 4 µg/mL; in assay [3], 4 µg/mL; in assay [4], 4 µg/mL; in assay [5] it was 0.5 µg/mL.
Take `CC1(C)S[C@@H]2[C@H](NC(=O)[C@H](N)c3ccccc3)C(=O)N2[C@H]1C(=O)O` [AMPICILLIN]: the MIC is 16 µg/mL (≈ 45.8 µM) in assay [1]; greater than 1020 µg/mL in assay [2]; greater than 1020 µg/mL in assay [3]; greater than 1020 µg/mL in assay [4]; greater than 1020 µg/mL in assay [5].

The values are drawn from ChEMBL document CHEMBL1240388, “Single nucleotide polymorphism analysis of the major tripartite multidrug efflux pump of Escherichia coli: functional conservation in disparate animal reservoirs despite exposure to antimicrobial chemotherapy” (2010).
